Assay results as given in patent US20250177481A1, “SCO-spondin-derived polypeptides for enhancing synaptic transmission” (AXOLTIS PHARMA, priority 2021, published 2025).
Where “and” joins values, the source holds several entries; their conditions need not be identical. Equal values may be shown once. Positions of bridges follow the written chain, without caps; N, C: chain ends. No end group written: not given here.

How the values were obtained:
[1] = test system: scopolamine-induced spatial short-term working memory deficits in mice; assay: Y-maze spontaneous alternation in the scopolamine mouse model of amnesia; format: in vivo, Swiss mice
Experimental: Male Swiss mice, weighing 30-35 g, from JANVIER (Saint Berthevin, France), were housed in groups with access to food and water ad libitum, except during behavioral experiments. They were kept in a temperature and humidity-controlled animal facility on a 12 h/12 h light/dark cycle (lights off at 07:[…]). Mice were numbered by marking their tail with permanent markers. All animal procedures were conducted in strict adherence to the European Union directive of Sep. 22, 2010 (2010/63/UE). In each cage (n=6 per cage), treatment regimen was the same. Animals were tested in a random and blind manner.
Donepezil (DPZ) used as positive control was administered per os at a dose of 1 mg/kg once 1 h before the YM test.
Scopolamine was administered at a dose of 0.5 mg/kg by subcutaneous injection 30 minutes before the YM session.
After administration of compounds at different timepoints all animals were tested for spontaneous alternation performance in the YM, an index of spatial working memory. The YM was designed according to Itoh and collaborators (1993) and Hiramatsu and Inoue (1999) and is made of grey polyvinylchloride. Each arm is 40-cm long, 13-cm high, 3-cm wide at the bottom, 10-cm wide at the top, and converging at an equal angle. Each mouse was placed at the end of one arm and allowed to move freely through the maze during an 8-min session. The series of arm entries, including possible returns into the same arm, were checked visually. An alternation was defined as entries into all three arms on consecutive occasions. The number of maximum alternations is therefore the total number of arm entries minus two and the percentage of alternation was calculated as (actual alternations/maximum alternations)×100. Parameters included the percentage of alternation, called memory index, and total number of arm entries, called exploration index (Maurice et al., 1996, 1988; Meunier et al., 2006; Villard et al., 2009, 2011).
Animals showing an extreme behavior (alternation percentage <20% or >90% or number of arm entries <10) would have been discarded from the calculation. No animal was discarded accordingly.

[2] = test system: Schaffer collateral-CA1 synaptic transmission in mouse hippocampal slices after OGD; assay: fEPSP recovery after oxygen-glucose deprivation (OGD) in hippocampal slices, treatment during OGD (Example 7); format: cell-based, C57Bl6/J mice; settings: NX218 250 μg/mL during OGD, n=9 slices
Experimental: Acute episodes of hypoxia may cause a depression in synaptic activity in many brain regions. […] To meet this goal, functional recovery was assessed by recording evoked field excitatory postsynaptic potentials (fEPSPs) in mouse hippocampal neurons, before and after oxygen-glucose deprivation (OGD).
Experiments were carried out with 4-5 weeks old male C57Bl6/J mice (approximately 20 grams) obtained from Charles River, France. In total, 9 mice were used in this study. Two slices were recorded from each mouse (one for the control condition and another for the NX218 condition). Animals were acclimated to laboratory housing conditions for 13 days prior to experimental use. Standard Food (Type a04, SAFE, France) was available ad libitum. Filtered mains drinking water ([…]) was available ad libitum.
Sagittal hippocampal brain slices were obtained using standard brain slicing methods (approximately 6 slices per mouse) (Knobloch et al. 2007). Mice were anesthetized with 5% isoflurane and then decapitated. Brain was dissected out of the cranium and immediately immersed in ice-cold freshly prepared artificial cerebrospinal fluid (aCSF) containing: 124 mM NaCl, 3.75 mM KCl, 2 mM MgSO4, 2 mM CaCl2, 26.5 mM NaHCO3, 1.25 mM NaH2PO4, 10 mM glucose, continuously oxygenated (95% O2, 5% CO2) (pH=7.4) for a total duration of 3-4 minutes. Acute slices (350 μm thick) were prepared using a vibratome (VT 1000S; Leica Microsystems, Bannockburn, IL). […]
For electrophysiological recordings, a single slice was placed in the recording chamber (room temperature), submerged and continuously superfused with gassed aCSF (95% O2, 5% CO2; pH=7.4) at a constant rate (2 mL min^−1) for the reminder of the experiment. Extracellular field excitatory postsynaptic potentials (fEPSPs) were recorded in the CA1 stratum radiatum using a glass micropipette filled with aCSF. fEPSPs were evoked by the electrical stimulation of Schaffer collateral-commissural pathway at 0.1 Hz (i.e., a single pulse every 10 s) with a glass stimulating electrode (borosilicate capillary glass with filament, standard wall; OD: 1.5 mm; ID: 0.86 mm; Length: 75 mm; ref: W3 30-0060 from Harvard Apparatus) placed in the stratum radiatum.
At the beginning of each experiment (when a stable fEPSP response was reached), Input/Output (I/O) curves were obtained by gradual increases in stimulus intensity (from 0 to 100 μA, 10 μA intervals) to determine the intensity of stimulation that was kept for the reminder of the experiment. Stable baseline fEPSPs was then recorded during 10 minutes by stimulating at 80% of maximal field amplitude (single pulse every 10 s, i.e., 0.1 Hz). […]

In the case of “W-S-G-W-S-S-C-S-R-S-C-G [NX218] (WSGWSSCSRSCG; disulfide 7-11 (inferred))”, the “effect on scopolamine-induced spatial short-term working memory impairments (Y-maze)” value ([1]; 2.5 mg/kg i.p. (lowest tested dose) 24 h before the test) is reported as “efficacy was already demonstrated”, the “effect on scopolamine-induced spatial short-term working memory impairments (Y-maze)” value ([1]; 5 mg/kg i.p. 2 h before the test, data not shown) is reported as “only partial” and the “effect on scopolamine-induced spatial short-term working memory impairments (Y-maze)” value ([1]; 5 mg/kg i.p. 24 h before the test, data not shown) is reported as “complete reversal effect”. The “effect on scopolamine-induced spatial short-term working memory impairments (Y-maze)” value ([1]; 5 mg/kg i.p. 48 h before the test, data not shown) was “partially blocked”, the “effect on scopolamine-induced spatial short-term working memory impairments (Y-maze)” value ([1]; 10 mg/kg i.p. 48 h before the test, data not shown) was “completely counteracted” and the “effect on scopolamine-induced spatial short-term working memory impairments (Y-maze)” value ([1]; 15 mg/kg i.p. once 48 h before the test, data not shown) was “partially blocked”. The “dose with maximum effect on scopolamine-induced memory impairments (Y-maze)” value ([1]; i.p. once 24 h before the test, bell-shaped dose-response curve) was 10 mg/kg, the “spontaneous alternance in Y-maze” value ([1]; scopolamine + 10 mg/kg i.p. 24 h before test, scopolamine alone 45, control 70, n=6, 10 mg/kg) was 71% and the “averaged normalized f-EPSP slope” value ([2]; 0-30 min after start of OGD, vehicle 31.618) was 31.043 % of baseline. For the same substance, the “averaged normalized f-EPSP slope” value ([2]; 30-60 min after start of OGD, vehicle 47.152) was 61.7±5.0 % of baseline and 61.663 % of baseline, the “averaged normalized f-EPSP slope” value ([2]; 60-90 min after start of OGD, vehicle 69.598) was 88.0±2.6 % of baseline and 87.959 % of baseline and the “averaged normalized f-EPSP slope” value ([2]; last 10 min (of 90 min) after start of OGD, vehicle 72.432) was 92.6±2.4 % of baseline and 92.639 % of baseline.
